Assay results: US20120253032A1, “NOVEL CATIONIC LIPIDS WITH SHORT LIPID CHAINS FOR OLIGONUCLEOTIDE DELIVERY” (priority 2009, published 2012)

How the values were obtained:
[1] = tested on: mRNA transcript for the firefly (Photinus pyralis) luciferase gene; assay: In vivo efficacy in luciferase mouse model (bioluminescence, IVIS imager); details: tail vein injection; for Average % Inhibition of Bioluminescence: LNPs prepared from the cationic lipid with Luc siRNA, 3 mg Kg^−1, imaged 48 hours post dose, relative to pre-dose luminescence
Protocol: LNPs utilizing compound 4, in the nominal compositions described immediately above, were evaluated for in vivo efficacy and induction of inflammatory cytokines in a luciferase mouse model. The siRNA targets the mRNA transcript for the firefly (Photinus pyralis) luciferase gene (Accession #M15077). […] The in vivo luciferase model employs a transgenic mouse in which the firefly luciferase coding sequence is present in all cells. ROSA26-LoxP-Stop-LoxP-Luc (LSL-Luc) transgenic mice licensed from the Dana Farber Cancer. Institute are induced to express the Luciferase gene by first removing the LSL sequence with a recombinant Ad-Cre virus (Vector Biolabs). Due to the organo-tropic nature of the virus, expression is limited to the liver when delivered via tail vein injection. Luciferase expression levels in liver are quantitated by measuring light output, using an IVIS imager (Xenogen) following administration of the luciferin substrate (Caliper Life Sciences). Pre-dose luminescence levels are measured prior to administration of the RDVs. Luciferin in PBS (15 mg/mL) is intraperitoneally (IP) injected in a volume of 150 uL. After a four minute incubation period mice are anesthetized with isoflurane and placed in the IVIS imager. The RDVs (containing siRNA) in PBS vehicle were tail vein injected n a volume of 0.2 mL. Final dose levels ranged from 0.3 to 3 mg/kg siRNA. PBS vehicle alone was dosed as a control. Three hours post dose, mice were bled retro-orbitally to obtain plasma for cytokine analysis. Mice were imaged 48 hours post dose using the method described above. Changes in luciferin light output directly correlate with luciferase mRNA levels and represent an indirect measure of luciferase siRNA activity. In vivo efficacy results are expressed as % inhibition of luminescence relative to pre-dose luminescence levels. Plasma cytokine levels were determined using the Searchlight multiplexed cytokine chemoluminescent array (Pierce/Thermo). Systemic administration of the luciferase siRNA RDVs decreased luciferase expression in a dose dependant manner.

mKC = assay: Mouse in vivo cytokine mKC induction (plasma, Searchlight multiplexed cytokine array); details: RDVs containing luciferase siRNA; plasma 3 hours post dose; relative to PBS control
Protocol: (§1) FIG. 2: Mouse in vivo Cytokine mKC Induction 3 hour post injection. LNPs utilizing compound 4, in the nominal compositions described immediately above, were evaluated for in vivo efficacy and induction of inflammatory cytokines in a luciferase mouse model. The siRNA targets the mRNA transcript for the firefly (Photinus pyralis) luciferase gene (Accession #M15077). […] The in vivo luciferase model employs a transgenic mouse in which the firefly luciferase coding sequence is present in all cells. ROSA26-LoxP-Stop-LoxP-Luc (LSL-Luc) transgenic mice licensed from the Dana Farber Cancer. Institute are induced to express the Luciferase gene by first removing the LSL sequence with a recombinant Ad-Cre virus (Vector Biolabs). Due to the organo-tropic nature of the virus, expression is limited to the liver when delivered via tail vein injection. Luciferase expression levels in liver are quantitated by measuring light output, using an IVIS imager (Xenogen) following administration of the luciferin substrate (Caliper Life Sciences). Pre-dose luminescence levels are measured prior to administration of the RDVs. […] In vivo efficacy results are expressed as % inhibition of luminescence relative to pre-dose luminescence levels. Plasma cytokine levels were determined using the Searchlight multiplexed cytokine chemoluminescent array (Pierce/Thermo). […]

IL-6 = assay: Mouse in vivo cytokine IL-6 induction (plasma, Searchlight multiplexed cytokine array); details: RDVs containing luciferase siRNA; plasma 3 hours post dose; relative to PBS control
Protocol: as §1, with “1:” for “2:”, “IL-6” for “mKC”

| Compound | Average % Inhibition of Bioluminescence [1] | In vivo efficacy (decrease of luciferase expression) ([1]; RDVs containing luciferase siRNA, 0.3 to 3 mg/kg siRNA, 48 hours post dose) | Mouse plasma level of cytokine mKC (mKC) | Mouse plasma level of cytokine IL-6 (IL-6) |
| --- | --- | --- | --- | --- |
| CCCCCCCCOC[C@H](CN(C)C)OCCCCO[C@H]1CC[C@@]2(C)C(=CC[C@H]3[C@@H]4CC[C@H]([C@H](C)CCCC(C)C)[C@@]4(C)CC[C@@H]32)C1 [Compound 4, (2S)-2-{4-[(3β)-cholest-5-en-3-yloxy]butoxy}-N,N-dimethyl-3-(octyloxy)propan-1-amine] | 87% | Greater efficacy | minimal cytokine induction | minimal cytokine induction |
| CCCCC/C=C\C/C=C\CCCCCCCCOCC(CN(C)C)OCCCCCCCCO[C@H]1CC[C@@]2(C)C(=CC[C@H]3[C@@H]4CC[C@H]([C@H](C)CCCC(C)C)[C@@]4(C)CC[C@@H]32)C1 (stereo partly shown) [Compound 12, S-Octyl CLinDMA, reference compound] | 76% | – | significantly increased | significantly increased |
